Patent publication US20100330029A1, “Cancer Treatments with Radiation and Immunocytokines” (Merck Patent GmbH, priority 2008, published 2010)

Assays:
CT26-specific T-cells = assay: ELISPOT assay for IFNγ induction in splenocytes, CT26/KSA model; format: in vivo, mice; details: radiation followed by EMD521873, compared to either therapy alone
Description: Enzyme-linked immunospot C (ELISPOT) assays for IFNγ induction in splenocytes were conducted by first coating ELISPOT plates with an anti-IFNγ antibody (murine IFNγ kit, BD Biosciences). Splenocytes from treated mice were added to the plates and incubated with an AH1:A5 peptide to stimulate IFNγ release from CT26-specific T-cells. Biotinylated IFNγ detection Ab and streptavidin-HRP were added to the plates. Resultant spots from individual IFNγ-producing lymphocytes were counted using a Zeiss® KS-ELISPOT plate reader.

B16 melanoma = assay: tumor growth assay, B16 model; format: in vivo, mice; details: Experiment B16-1; 10 Gy d0 followed by i.v. EMD521873 days 3, 4, 5
Description: B16 cells, a murine melanoma cell line, were maintained in RPMI 1640, supplemented with 10% heat inactivated fetal bovine serum, L-glutamine, sodium pyruvate, non-essential amino acids, penicillin/streptomycin (Life Technologies, Inc.) at 37° C. and 7% CO2. B16 cells were implanted in female C57BL/6 mice.
For the tumor growth assay, cells growing exponentially in culture were injected as a single cell suspension in 100 μl of PBS intramuscularly into the upper legs of the mice. In experiments using a dual tumor model, cells were also implanted in the flanks of the mice. After tumors had become established, treatment was initiated (day 0). In Experiment LLC-7, tumors were implanted in the flank until established. Mice were treated on days 0 to 9, then, on day 12, tumors were excised using survival surgery. Thereafter, animal survival was monitored. […] Mice were treated on days 0 to 6 and day 17, and tumor size was measured twice weekly for the duration of the study.
Tumors were measured with calipers in three dimensions for the duration of the experiment. Tumor volumes were calculated using the equation: […]
In addition, there was a moderate, but significant increase in certain immune response markers in the tumor as measured by immune marker gene expression profiles with CD25, TNFA, TYROBP, ICOS and CD45 being modulated >4-fold compared to either therapy alone.

[1] = tested on: Lewis Lung Carcinoma cells; assay: rechallenge of cured mice with Lewis Lung Carcinoma cells; format: in vivo
Description: The ability of irradiation followed by intravenous administration of the exemplary immunocytokine EMD521873 to generate a long lasting immune response was tested by rechallenging cured mice with tumor cells. Mice bearing Lewis Lung Carcinoma tumors were originally treated with either fractionated radiation (3.6 Gy/d, d0-4) plus cisplatin (4 mg/kg, d0), EMD521873 alone (5 mg/kg, d7, 8, 9), or the combination of EMD521873 plus chemoradiation.

[2] = tested on: CD8 effector cells in the blood; assay: FACS analysis of blood, LLC dual tumor model; format: in vivo, mice; details: Experiment LLC-6; combination compared to either chemoradiation or EMD521873 alone
Description: Immune effector cell populations in blood were analyzed by FACS. Blood was collected from the retro-orbital sinus of each mouse. Red blood cells were eliminated using lysis buffer. After blocking with rat IgG (1:50), samples were incubated with a 7-color cocktail of antibodies against CD4, CD8, CD25, CD44, CD62L, CD11b, and DX5. Samples were run on a FacsARIA and analyzed for various cell subpopulations.
In another experiment, LLC tumors were established subcutaneously in both the leg and flank of the same animal. Animals were then treated with either cisplatin (4 mg/kg, d0) plus fractionated radiation given to the leg tumor (3.6 Gy/d, d0-4), i.v. EMD521873 alone (5 mg/kg, d7, 8, 9), or the combination of EMD521873 plus chemoradiation (Experiment LLC-6). Tumor growth and immune response in both the irradiated leg tumor and the non-irradiated flank tumor were monitored. […] CD8 effector cells were increased by approximately 4-fold in the blood with the combination compared to either chemoradiation or EMD521873 alone.

[3] = tested on: non-small cell lung cancer; assay: dose-escalation trial in non-small cell lung cancer; format: in vivo; details: human NSCLC; local irradiation 5×4 Gy then EMD521873 at a dose level below the MTD
Description: An dose-escalation trial is performed using EMD521873 in combination with local irradiation (20 Gy) of primary tumors or metastases in subjects with non-small cell lung cancer stage IIIb with malignant pleural effusion or stage IV with disease control (partial response or stable disease) after application of 4 cycles of platinum-based, first-line chemotherapy.
Subjects receive local irradiation (5×4 Gy) given over 5 consecutive days, prior to the first treatment cycle with EMD521873. After a 2-day treatment-free interval, intravenous infusions of EMD521873 are given on 3 consecutive days in 3-week cycles.
In each cycle, patients receive EMD521873 given as a once-daily, 1-h intravenous infusion on 3 consecutive days (days 1-3) followed by an 18-day treatment-free break (days 4-21).
Dose escalation of EMD521873 is performed in cohorts of 3 subjects at dose levels of 0.15, 0.30, and 0.45 mg/kg. Escalation to the next dose level is based on the number of dose limiting toxicities (DLTs) observed, if any, during the DLT evaluation period (i.e. the 21 days following the day of first infusion of […] in the first cycle). DLTs are defined as any grade ≧3 toxicity assessed as related to trial treatment (EMD521873 and/or radiation). If no DLT occurs in the 3 subjects, the next 3 subjects are recruited at the next highest dose level. […]

## dI-NHS76γ2(h)(FN>AQ)-ala-IL2(D20T) [EMD521873]
CT26-specific T-cells
  increase in T cell response (ELISPOT, endogenous CT26 antigen): > 4 fold
B16 melanoma
  anti-tumor activity: greater anti-tumor activity compared to either treatment alone
[1]; EMD521873/Chemoradiation treatment, s.c. LLC rechallenge after complete remission >50 days
  mice with complete response that did not regrow tumor on rechallenge: 12 out of 13
[1]; Exp LLC-4, cured C57BL/6 mice rechallenged with LLC cells
  Immunity to Rechallenge: 0/1
[1]; LLC-8, LLC-9, combination with chemoradiation
  mice with complete responses immune to rechallenge with LLC cells: Four out of 4
[2]
  CD8 effector cells increased in the blood: approximately 4 fold
[3]
  rates of tumor response (CT or MRI scan): improved rates of tumor response
